# Measurements as given in ChEMBL document CHEMBL4321837, “Discovery of Potent and Orally Effective Dual Janus Kinase 2/FLT3 Inhibitors for the Treatment of Acute Myelogenous Leukemia and Myeloproliferative Neoplasms” (J Med Chem, 2019).
# pIC50: −log10 of the molar value. Calls of active or inactive are those of the source. The calls are words filed in the database; no cut-off is given here.
# Columns and labels:
# [1] = molecular target: Tyrosine-protein kinase Lck (Homo sapiens, UniProt P06239); test: Inhibition of recombinant human full length human LCK using KVEKIGEGTYGVV as substrate incubated for 40 mins in presence of [gamma33P]-ATP by scintillation counting based radiometry assay
# [2] = system: MV4-11; test: Induction of cell cycle arrest in human MV4-11 cells assessed as accumulation at G2/M phase at 0.01 uM after 24 hrs by propidium iodide staining based flow cytometry analysis (reference value: 15.4%); assay type: functional
# [3] = system: MV4-11; test: Induction of apoptosis in human MV4-11 cells assessed as late apoptotic cells at 0.8 uM after 24 hrs by Annexin V FITC/PI staining based flow cytometry analysis (reference value: 1.38%); assay type: functional
# [4] = system: MV4-11; test: Antitumor activity against FLT3-ITD-positive human MV4-11 cells xenografted in NOD/SCID mouse assessed as tumor growth inhibition at 30 mg/kg, po qd for 14 days measured every 2 days for 14 days by caliper method relative to control; assay type: functional; details: MV4-11, po, read-out: TGI
# [5] = molecular target: T1, JAK3/JAK1 (Homo sapiens, UniProt P23458+P52333); test: Inhibition of JAK1/JAK3 in human THP-1 cells assessed as reduction in IL-4-induced STAT6 phosphorylation by flow cytometry; assay type: cell-based
# [6] = system: MV4-11; test: Induction of cell cycle arrest in human MV4-11 cells assessed as accumulation at G2/M phase at 0.005 uM after 24 hrs by propidium iodide staining based flow cytometry analysis (reference value: 15.4%); assay type: functional
# [7] = Toxicity in NOD/SCID mouse xenografted with human SET2 cells overexpressing JAK2 V617F mutant assessed as animal survival at 30 to 60 mg/kg, po qd for 18 days; assay type: organism-based; details: in vivo
# [8] = molecular target: Tyrosine-protein kinase JAK1 (Homo sapiens, UniProt P23458); test: Inhibition of human JAK1 (866 to end residues) GEEPLYWSFPAKK as substrate after 40 mins in presence of [gamma33P]-ATP by scintillation counting based radiometric assay
# [9] = system: MV4-11; test: Induction of apoptosis in human MV4-11 cells assessed as late apoptotic cells at 0.2 uM after 24 hrs by Annexin V FITC/PI staining based flow cytometry analysis (reference value: 1.38%); assay type: functional
# [10] = system: MV4-11; test: Induction of cell cycle arrest in human MV4-11 cells assessed as accumulation at G0/G1 phase at 0.005 uM after 24 hrs by propidium iodide staining based flow cytometry analysis (reference value: 54.49%); assay type: functional
# [11] = system: MV4-11; test: Induction of apoptosis in human MV4-11 cells after 24 hrs by Annexin V FITC/PI staining based flow cytometry analysis; assay type: functional, cell-based
# [12] = system: MV4-11; test: Induction of cell cycle arrest in human MV4-11 cells assessed as accumulation at G2/M phase at 0.1 uM after 24 hrs by propidium iodide staining based flow cytometry analysis (reference value: 15.4%); assay type: functional
# [13] = system: MV4-11; test: Induction of apoptosis in human MV4-11 cells assessed as necrotic cells at 0.2 uM after 24 hrs by Annexin V FITC/PI staining based flow cytometry analysis (reference value: 0.18%); assay type: functional
# [14] = molecular target: Receptor-type tyrosine-protein kinase FLT3 (Homo sapiens, UniProt P36888, D835Y); test: Inhibition of recombinant human FLT3 D835Y mutant (564 to end residues) using EAIYAAPFAKKK as substrate incubated for 40 mins in presence of [gamma33P]-ATP by scintillation counting based radiometry assay
# [15] = molecular target: Tyrosine-protein kinase Lyn (Homo sapiens, UniProt P07948); test: Inhibition of recombinant full length human LYN using poly(Glu, Tyr) 4:1 as substrate incubated for 40 mins in presence of [gamma33P]-ATP by scintillation counting based radiometry assay
# [16] = Terminal elimination half life in Sprague-Dawley rat at 5 mg/kg, po measured up to 24 hrs by LC/MS/MS analysis; assay type: ADME, organism-based; details: in vivo, 24 h
# [17] = Half life in rat liver microsomes; assay type: ADME, Microsome
# [18] = Half life in dog liver microsomes; assay type: ADME, Canis lupus familiaris, Microsome
# [19] = system: MV4-11; test: Induction of apoptosis in human MV4-11 cells assessed as early apoptotic cells at 0.2 uM after 24 hrs by Annexin V FITC/PI staining based flow cytometry analysis (reference value: 2.14%); assay type: functional
# [20] = system: MV4-11; test: Induction of cell cycle arrest in human MV4-11 cells assessed as accumulation at G2/M phase at 0.05 uM after 24 hrs by propidium iodide staining based flow cytometry analysis (reference value: 15.4%); assay type: functional
# [21] = system: MV4-11; test: Induction of apoptosis in human MV4-11 cells assessed as viable cells at 0.8 uM after 24 hrs by Annexin V FITC/PI staining based flow cytometry analysis (reference value: 96.3%); assay type: functional; details: MV4-11, 24 h, read-out: Activity
# [22] = Half life in human liver microsomes; assay type: ADME, Microsome
# [23] = Oral bioavailability in Sprague-Dawley rat at 5 mg/kg measured up to 24 hrs by LC/MS/MS analysis; assay type: ADME, organism-based; details: in vivo
# [24] = Anti-myelofibrosis activity against mouse BAF3(transformed) cells harboring with JAK2 V617F mutant allografted in NOD/SCID mouse assessed as reduction in liver weight at 60 mg/kg, po qd for 20 days measured on day 25 relative to control; assay type: functional
# [25] = molecular target: T1, JAK3/JAK1; test: Inhibition of JAK1/JAK3 in human PBMC cells assessed as reduction in IL-2-induced STAT5 phosphorylation by flow cytometry; assay type: cell-based
# [26] = Half life in mouse liver microsomes; assay type: ADME, Microsome
# [27] = system: SET-2; test: Antitumor activity against human SET2 cells overexpressing JAK2 V617F mutant xenografted in NOD/SCID mouse assessed as tumor growth inhibition at 60 mg/kg, po qd for 18 days measured every 2 days for 18 days by caliper method relative to control; assay type: functional; details: SET-2, po, read-out: TGI
# [28] = molecular target: Tyrosine-protein kinase JAK2 (Homo sapiens, UniProt O60674); test: Inhibition of human JAK2 (808 to end residues) assessed as residual activity at 100 nM using KTFCGTPEYLAP as substrate after 40 mins in presence of [gamma33P]-ATP by scintillation counting based radiometric assay relative to control
# [29] = Intrinsic clearance in dog liver microsomes; assay type: ADME, Canis lupus familiaris, Microsome
# [30] = molecular target: Vascular endothelial growth factor receptor 1 (Homo sapiens, UniProt P17948); test: Inhibition of recombinant human FLT1 (783 to end residues) using KKKSPGEYVNIEF as substrate incubated for 40 mins in presence of [gamma33P]-ATP by scintillation counting based radiometry assay
# [31] = Toxicity in NOD/SCID mouse xenografted with FLT3-ITD-positive human MV4-11 cells assessed as body weight at 30 to 60 mg/kg, po qd for 14 days; assay type: organism-based; details: in vivo, 336 h
# [32] = system: MV4-11; test: Induction of apoptosis in human MV4-11 cells assessed as necrotic cells at 1.6 uM after 24 hrs by Annexin V FITC/PI staining based flow cytometry analysis (reference value: 0.18%); assay type: functional
# [33] = molecular target: Voltage-gated inwardly rectifying potassium channel KCNH2 (Homo sapiens, UniProt Q12809); test: Inhibition of human ERG
# [34] = system: MV4-11; test: Inhibition of JAK2/FLT3 ITD mutant in human MV4-11 cells assessed as reduction in JAK2 phosphorylation at 0.2 uM after 2 hrs by Western blot analysis; assay type: cell-based
# T1 sequence (P52333 whole entry): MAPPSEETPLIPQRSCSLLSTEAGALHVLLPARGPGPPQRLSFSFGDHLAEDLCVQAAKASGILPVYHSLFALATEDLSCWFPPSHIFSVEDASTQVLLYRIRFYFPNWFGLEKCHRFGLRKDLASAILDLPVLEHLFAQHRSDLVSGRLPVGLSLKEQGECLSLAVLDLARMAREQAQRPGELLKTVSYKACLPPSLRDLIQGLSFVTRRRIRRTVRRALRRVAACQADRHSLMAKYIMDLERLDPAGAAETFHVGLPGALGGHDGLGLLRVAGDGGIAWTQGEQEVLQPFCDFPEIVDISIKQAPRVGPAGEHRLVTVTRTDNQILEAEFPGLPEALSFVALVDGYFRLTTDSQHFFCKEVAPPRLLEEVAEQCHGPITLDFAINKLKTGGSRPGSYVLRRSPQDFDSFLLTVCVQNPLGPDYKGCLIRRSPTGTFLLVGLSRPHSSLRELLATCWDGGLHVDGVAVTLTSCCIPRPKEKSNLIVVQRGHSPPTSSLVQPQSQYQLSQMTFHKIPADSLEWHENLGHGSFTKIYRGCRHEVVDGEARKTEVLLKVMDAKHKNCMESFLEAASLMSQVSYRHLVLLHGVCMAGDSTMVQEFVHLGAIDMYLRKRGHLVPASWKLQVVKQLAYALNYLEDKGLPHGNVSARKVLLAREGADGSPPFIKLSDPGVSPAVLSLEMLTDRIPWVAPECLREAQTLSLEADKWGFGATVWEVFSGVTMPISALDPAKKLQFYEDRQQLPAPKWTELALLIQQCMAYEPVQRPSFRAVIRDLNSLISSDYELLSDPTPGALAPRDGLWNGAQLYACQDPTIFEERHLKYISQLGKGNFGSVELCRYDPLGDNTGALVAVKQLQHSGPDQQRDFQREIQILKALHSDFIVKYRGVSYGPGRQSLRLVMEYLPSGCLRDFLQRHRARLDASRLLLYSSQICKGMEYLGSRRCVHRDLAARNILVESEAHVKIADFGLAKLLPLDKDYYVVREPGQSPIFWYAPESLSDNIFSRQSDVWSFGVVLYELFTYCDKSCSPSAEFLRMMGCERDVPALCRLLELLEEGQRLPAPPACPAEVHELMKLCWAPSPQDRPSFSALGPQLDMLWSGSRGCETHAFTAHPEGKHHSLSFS
# T1 sequence (P23458 whole entry): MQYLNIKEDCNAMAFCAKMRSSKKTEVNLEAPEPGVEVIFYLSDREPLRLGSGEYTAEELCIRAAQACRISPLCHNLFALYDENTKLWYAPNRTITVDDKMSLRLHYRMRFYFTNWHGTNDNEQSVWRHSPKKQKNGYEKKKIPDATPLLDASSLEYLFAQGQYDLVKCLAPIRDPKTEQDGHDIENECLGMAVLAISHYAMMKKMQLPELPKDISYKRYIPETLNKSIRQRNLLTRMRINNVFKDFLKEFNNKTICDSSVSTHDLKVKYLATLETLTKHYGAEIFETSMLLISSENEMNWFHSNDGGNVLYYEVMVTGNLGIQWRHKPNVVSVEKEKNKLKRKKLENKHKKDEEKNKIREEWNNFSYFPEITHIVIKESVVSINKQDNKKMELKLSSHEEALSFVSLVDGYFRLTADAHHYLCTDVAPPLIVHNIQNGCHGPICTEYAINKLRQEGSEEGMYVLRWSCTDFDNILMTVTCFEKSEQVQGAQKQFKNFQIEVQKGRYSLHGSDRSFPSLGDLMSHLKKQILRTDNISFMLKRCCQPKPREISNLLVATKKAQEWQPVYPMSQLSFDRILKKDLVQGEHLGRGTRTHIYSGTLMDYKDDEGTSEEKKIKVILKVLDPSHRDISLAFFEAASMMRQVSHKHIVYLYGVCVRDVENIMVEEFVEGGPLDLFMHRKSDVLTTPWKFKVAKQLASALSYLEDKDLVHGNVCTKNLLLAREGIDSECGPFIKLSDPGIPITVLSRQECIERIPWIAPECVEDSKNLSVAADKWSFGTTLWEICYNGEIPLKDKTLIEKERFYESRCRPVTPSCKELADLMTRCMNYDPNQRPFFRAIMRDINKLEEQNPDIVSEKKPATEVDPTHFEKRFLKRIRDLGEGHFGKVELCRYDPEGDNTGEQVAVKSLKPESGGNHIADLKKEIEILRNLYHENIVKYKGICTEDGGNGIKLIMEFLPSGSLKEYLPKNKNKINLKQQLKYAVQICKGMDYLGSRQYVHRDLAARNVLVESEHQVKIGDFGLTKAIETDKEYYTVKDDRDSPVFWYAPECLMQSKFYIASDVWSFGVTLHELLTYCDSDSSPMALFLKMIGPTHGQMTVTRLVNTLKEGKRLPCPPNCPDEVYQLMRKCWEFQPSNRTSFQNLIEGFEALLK
# Vascular endothelial growth factor receptor 1, sequence (P17948 whole entry): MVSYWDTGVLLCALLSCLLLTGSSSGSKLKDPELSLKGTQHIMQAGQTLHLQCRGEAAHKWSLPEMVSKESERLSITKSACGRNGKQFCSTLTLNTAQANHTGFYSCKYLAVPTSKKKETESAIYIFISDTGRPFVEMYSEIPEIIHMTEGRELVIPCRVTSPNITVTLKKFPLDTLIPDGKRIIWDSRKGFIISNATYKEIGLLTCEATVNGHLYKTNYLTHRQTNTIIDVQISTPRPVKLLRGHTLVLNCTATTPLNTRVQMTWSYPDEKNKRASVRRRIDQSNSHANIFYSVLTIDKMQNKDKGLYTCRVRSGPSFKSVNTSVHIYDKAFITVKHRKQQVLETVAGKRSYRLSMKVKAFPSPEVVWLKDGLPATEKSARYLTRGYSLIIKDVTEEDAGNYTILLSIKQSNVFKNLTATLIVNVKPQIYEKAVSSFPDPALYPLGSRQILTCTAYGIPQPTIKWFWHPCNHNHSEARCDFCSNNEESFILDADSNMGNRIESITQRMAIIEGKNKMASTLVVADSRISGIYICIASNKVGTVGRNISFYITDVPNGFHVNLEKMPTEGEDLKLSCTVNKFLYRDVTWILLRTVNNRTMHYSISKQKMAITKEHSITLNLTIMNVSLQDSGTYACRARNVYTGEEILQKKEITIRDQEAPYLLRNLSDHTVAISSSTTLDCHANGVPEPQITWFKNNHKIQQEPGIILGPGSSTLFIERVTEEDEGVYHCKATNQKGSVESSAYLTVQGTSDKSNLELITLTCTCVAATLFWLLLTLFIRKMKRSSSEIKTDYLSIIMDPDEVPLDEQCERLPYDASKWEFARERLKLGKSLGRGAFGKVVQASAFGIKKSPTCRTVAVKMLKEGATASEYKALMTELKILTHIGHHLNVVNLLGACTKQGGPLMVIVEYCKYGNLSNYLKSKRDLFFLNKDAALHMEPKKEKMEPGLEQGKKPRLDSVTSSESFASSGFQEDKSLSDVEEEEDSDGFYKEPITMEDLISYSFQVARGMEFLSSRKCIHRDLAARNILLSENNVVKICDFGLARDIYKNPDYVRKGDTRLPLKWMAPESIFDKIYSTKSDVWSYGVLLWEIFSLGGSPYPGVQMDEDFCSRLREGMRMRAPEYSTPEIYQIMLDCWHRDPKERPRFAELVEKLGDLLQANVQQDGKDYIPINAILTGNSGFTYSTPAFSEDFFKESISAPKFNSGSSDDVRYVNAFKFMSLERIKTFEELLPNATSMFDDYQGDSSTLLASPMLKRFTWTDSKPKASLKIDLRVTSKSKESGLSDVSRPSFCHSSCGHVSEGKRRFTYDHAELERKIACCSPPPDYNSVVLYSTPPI
# Voltage-gated inwardly rectifying potassium channel KCNH2, sequence (Q12809 whole entry): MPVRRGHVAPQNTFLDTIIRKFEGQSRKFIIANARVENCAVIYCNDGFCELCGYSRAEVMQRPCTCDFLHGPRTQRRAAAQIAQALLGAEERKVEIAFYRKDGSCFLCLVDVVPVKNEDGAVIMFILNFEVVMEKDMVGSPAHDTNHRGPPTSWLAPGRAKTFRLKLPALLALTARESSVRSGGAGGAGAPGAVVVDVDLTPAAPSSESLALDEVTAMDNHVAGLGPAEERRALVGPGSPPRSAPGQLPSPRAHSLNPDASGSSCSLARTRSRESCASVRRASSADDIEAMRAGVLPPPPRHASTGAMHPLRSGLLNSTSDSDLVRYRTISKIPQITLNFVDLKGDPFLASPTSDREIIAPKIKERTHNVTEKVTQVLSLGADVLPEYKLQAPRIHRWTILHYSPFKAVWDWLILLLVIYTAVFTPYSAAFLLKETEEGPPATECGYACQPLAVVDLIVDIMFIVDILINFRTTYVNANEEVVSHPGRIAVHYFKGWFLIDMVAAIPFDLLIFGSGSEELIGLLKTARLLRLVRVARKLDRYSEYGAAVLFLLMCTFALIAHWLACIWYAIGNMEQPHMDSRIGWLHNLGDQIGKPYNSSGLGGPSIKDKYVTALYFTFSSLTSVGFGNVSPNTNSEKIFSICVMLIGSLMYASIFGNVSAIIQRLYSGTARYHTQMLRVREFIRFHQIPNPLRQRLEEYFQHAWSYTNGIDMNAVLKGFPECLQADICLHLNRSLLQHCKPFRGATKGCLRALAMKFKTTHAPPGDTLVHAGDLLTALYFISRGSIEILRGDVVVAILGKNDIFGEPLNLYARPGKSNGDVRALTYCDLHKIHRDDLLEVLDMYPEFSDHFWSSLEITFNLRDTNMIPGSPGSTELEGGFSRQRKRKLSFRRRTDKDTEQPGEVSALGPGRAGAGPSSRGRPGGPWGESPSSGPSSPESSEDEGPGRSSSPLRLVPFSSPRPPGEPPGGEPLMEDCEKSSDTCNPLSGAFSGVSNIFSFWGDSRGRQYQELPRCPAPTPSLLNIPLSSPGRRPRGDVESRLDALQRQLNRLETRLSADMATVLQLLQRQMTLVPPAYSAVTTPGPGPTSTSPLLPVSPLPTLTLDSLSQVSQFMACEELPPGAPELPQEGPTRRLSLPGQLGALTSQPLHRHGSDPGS
# Tyrosine-protein kinase JAK1, sequence (P23458 whole entry): as the sequence (P23458 whole entry) above
smiles,measurement,setting,value
Cc1cnc(Nc2ccc(N3CCC(N(C)CCO)CC3)c(F)c2)nc1-c1cnn(C(C)C)c1,pIC50,[1],7.57
same,Activity,[2],11.8%
same,Activity,[3],29.3%
same,inhibition in vivo at 30 mg/kg,[4],58%
same,pIC50,[5],6.24
same,Activity,[6],15.4%
same,survival at 432 h,[7],100%
same,pIC50,[8],7.59
same,Activity,[9],9.88%
same,Activity,[10],55.92%
same,Activity,[11],Dose-dependent effect
same,Activity,[12],5.04%
same,Activity,[13],0.75%
same,pIC50,[14],8.40
same,pIC50,[15],7.77
same,beta t1/2,[16],4.1 h
same,half-life,[17],12.8 h
same,half-life,[18],3.12 h
same,Activity,[19],11.9%
same,Activity,[20],5.51%
same,viability at 0.8 µM,[21],46.4%
same,half-life,[22],4.81 h
same,bioavailability,[23],58%
same,inhibition in vivo at 60 mg/kg,[24],94.3%
same,pIC50,[25],6.95
same,half-life,[26],6.42 h
same,inhibition in vivo at 60 mg/kg,[27],85%
same,Activity,[28],0%
same,CLH,[29],3.7 µL/min/mg
same,pIC50,[30],7.66
same,Activity,[31],Non-Toxic
same,Activity,[32],0.68%
same,pIC50,[33],4.55
same,inhibition,[34],Active
